Measured values from patent US20190029257A1, “APPLICATION FOR HERBICIDE-TOLERANT PROTEIN” (BEIJING DABEINONG TECHNOLOGY GROUP CO., LTD., priority 2016, published 2019).

Columns and labels:
Format in all cases: in vivo
[1] = test system: At cytoplasmic ALT-3-01 T1 plants; assay: Herbicide tolerance of Arabidopsis thaliana T1 plants (spray, resistance classes counted); conditions: 18 g ai/ha (1x Hal.); number of plants 14 days after spraying; Total 28
Source text: (§1) T1 transformants were initially selected from the background of untransformed seeds using a glufosinate selection scheme. About 40000 T1 seeds were screened, and 380 T1 positive transformants (PAT gene) were identified with a transformation efficiency of about 0.95%. The plants that were transformed with the recombinant expression vector DBN100632 were Arabidopsis thaliana plants having an ALT-1-01 nucleotide sequence located in the cytoplasm introduced (At cytoplasmic ALT-1-01), and the plants that were transformed with the recombinant expression vector DBN100631 were Arabidopsis thaliana plants having an ALT-1-01 nucleotide sequence located in the chloroplast introduced (At chloroplastic ALT-1-01); the plants that were transformed with the recombinant expression vector DBN100634 were Arabidopsis thaliana plants having an ALT-2-01 nucleotide sequence located in the cytoplasm introduced (At cytoplasmic ALT-2-01), and the plants that were transformed with the recombinant expression vector DBN100633 were Arabidopsis thaliana plants having an ALT-2-01 nucleotide sequence located in the chloroplast introduced (At chloroplastic ALT-2-01); and the plants that were transformed with the recombinant expression vector DBN100636 were Arabidopsis thaliana plants having an ALT-3-01 nucleotide sequence located in the cytoplasm introduced (At cytoplasmic ALT-3-01), and the plants that were transformed with the recombinant expression vector DBN100635 were Arabidopsis thaliana plants having an ALT-3-01 nucleotide sequence located in the chloroplast introduced (At chloroplastic ALT-3-01). The herbicide tolerance effects of At cytoplasmic ALT-1-01 T1 plants, At chloroplastic ALT-1-01 T1 plants, At cytoplasmic ALT-2-01 T1 plants, At chloroplastic ALT-2-01 T1 plants, At cytoplasmic ALT-3-01 T1 plants, At chloroplastic ALT-3-01 T1 plants and wild-type Arabidopsis thaliana plants on halosulfuron-methyl were detected (14 days after sowing), respectively.
(§2) […] Plants were counted for the resistance situations 14 days after spraying: those having a consistent growth status with the blank solvent (water) group after 14 days were classified as highly resistant plants, those having a bolting height less than ½ of that of the blank solvent (water) group after 14 days were classified as moderately resistant plants, those still not capable of bolting after 14 days were classified as poorly resistant plants, and those dead after 14 days were classified as non-resistant plants. Since each Arabidopsis thaliana T1 plant was an independent transformation event, a significant difference in individual T1 responses could be expected at a given dose.
as §2, with “situation” for “situations”

[2] = test system: At chloroplastic ALT-2-01 T1 plants; assay: as above; conditions: 18 g ai/ha (1x Hal.); number of plants 14 days after spraying; Total 31
Source text: as §1, §2
as §2, with “situation” for “situations”

[3] = test system: At chloroplastic ALT-3-01 T1 plants; assay: as above; conditions: 18 g ai/ha (1x Hal.); number of plants 14 days after spraying; Total 30
Source text: as §1, §2
as §2, with “situation” for “situations”

[4] = test system: At cytoplasmic ALT-1-01 T1 plants; assay: as above; conditions: 18 g ai/ha (1x Hal.); number of plants 14 days after spraying; Total 31
Source text: as §1, §2
as §2, with “situation” for “situations”

[5] = test system: At cytoplasmic ALT-2-01 T1 plants; assay: as above; conditions: 18 g ai/ha (1x Hal.); number of plants 14 days after spraying; Total 28
Source text: as §1, §2
as §2, with “situation” for “situations”

[6] = test system: At chloroplastic ALT-1-01 T1 plants; assay: as above; conditions: 18 g ai/ha (1x Hal.); number of plants 14 days after spraying; Total 31
Source text: as §1, §2
as §2, with “situation” for “situations”

[7] = test system: wild-type Arabidopsis thaliana plants; assay: Herbicide tolerance of Arabidopsis thaliana plants (spray, resistance classes counted)
Source text: as §1
At cytoplasmic ALT-1-01 T1 plants, At chloroplastic ALT-1-01 T1 plants, At cytoplasmic ALT-2-01 T1 plants, At chloroplastic ALT-2-01 T1 plants, At cytoplasmic ALT-3-01 T1 plants, At chloroplastic ALT-3-01 T1 plants and wild-type Arabidopsis thaliana plants were sprayed with halosulfuron-methyl (34 g ai/ha, 1-fold field concentration) and a blank solvent (water), respectively. Plants were counted for the resistance situations 14 days after spraying: those having a consistent growth status with the blank solvent (water) group after 14 days were classified as highly resistant plants, those having a bolting height less than ½ of that of the blank solvent (water) group after 14 days were classified as moderately resistant plants, those still not capable of bolting after 14 days were classified as poorly resistant plants, and those dead after 14 days were classified as non-resistant plants. Since each Arabidopsis thaliana T1 plant was an independent transformation event, a significant difference in individual T1 responses could be expected at a given dose.
At cytoplasmic ALT-1-01 T1 plants, At chloroplastic ALT-1-01 T1 plants, At cytoplasmic ALT-2-01 T1 plants, At chloroplastic ALT-2-01 T1 plants, At cytoplasmic ALT-3-01 T1 plants, At chloroplastic ALT-3-01 T1 plants and wild-type Arabidopsis thaliana plants in Example 4 were sprayed with iodosulfuron-methyl (10 g ai/ha, 1-fold field concentration), mesosulfuron (14 g ai/ha, 1-fold field concentration) and oxasulfuron (60 g ai/ha, 1-fold field concentration), respectively, in addition to halosulfuron-methyl (34 g ai/ha, 1-fold field concentration) and the blank solvent (water). […]

[8] = 18 g ai/ha (1x Hal.), number of plants 14 days after spraying, Total 32

SMILES: COC(=O)c1c(Cl)nn(C)c1S(=O)(=O)NC(=O)Nc1nc(OC)cc(OC)n1 [halosulfuron-methyl, 3-chlorine-5-(4,6-dimethoxypyrimidine-2-aminocarbonylaminosulphonyl)-1-methylpyrazole-4-carboxylic acid methyl ester]
- Highly resistant [1]: 1
- Moderately resistant [1]: 6
- Non-resistant [1]: 5
- Poorly resistant [1]: 5
- Highly resistant [2]: 1
- Moderately resistant [2]: 4
- Non-resistant [2]: 5
- Poorly resistant [2]: 7
- Highly resistant [3]: 1
- Moderately resistant [3]: 6
- Non-resistant [3]: 5
- Poorly resistant [3]: 5
- Moderately resistant [4]: 6
- Non-resistant [4]: 15
- Poorly resistant [4]: 5
- Highly resistant [5]: 1
- Moderately resistant [5]: 6
- Non-resistant [5]: 5
- Poorly resistant [5]: 4
- Highly resistant [6]: 1
- Moderately resistant [6]: 2
- Non-resistant [6]: 7
- Poorly resistant [6]: 5
- Highly resistant [7, 8]: 0
- Moderately resistant [7, 8]: 0
- Non-resistant [7, 8]: 32
- Poorly resistant [7, 8]: 0
- tolerance of the plants to the herbicide ([7]; 34 g ai/ha, summary of Table 1 and FIG. 4): none of the wild-type Arabidopsis thaliana plants was tolerant
